From patent US7297797B2, “Pyrrolines” (Bayer CropScience AG, priority 2002, dated 2007)
Read-outs that look alike come from different tables or passages of the source.

How the values were obtained:
[1] = log P determination by HPLC on reversed-phase column (EEC Directive 79/831 Annex V.A8); format: physicochemical
Experimental: The log P values given in the preparation examples and tables above are determined in accordance with EEC Directive 79/831 Annex V.A8 by HPLC (High Performance Liquid Chromatography) on a reversed-phase column (C 18). Temperature: 43° C. In the acidic range, determination is carried out at pH 2.3 using the mobile phases 0.1% aqueous phosphoric acid and acetonitrile; linear gradient from 10% acetonitrile to 90% acetonitrile (in the tables marked with a)). In the neutral range, determination is carried out at pH 7.5 using the mobile phases 0.01 molar aqueous phosphate buffer solution and acetonitrile; linear gradient from 10% acetonitrile to 90% acetonitrile (in the tables marked with b)). Calibration is carried out using unbranched alkan-2-ones (of 3 to 16 carbon atoms) with known lopP values (determination of the log P values by the retention times using linear interpolation between two successive alkanones).

[2] = system: greenhouse red spider mite (Tetranychus urticae); experiment: Tetranychus test (OP-resistant/dip treatment); format: in vivo; conditions: 168 h, 100 ppm active compound, infested bean plants (Phaseolus vulgaris) dipped, OP-resistant, after 7 d, read-out: Kill rate in % after 7 d
Experimental: Tetranychus Test (OP-Resistant/Dip Treatment)
• Solvent: 7 parts by weight of dimethylformamide • Emulsifier: 2 parts by weight of alkylaryl polyglycol ether
To produce a suitable preparation of active compound, 1 part by weight of active compound is mixed with the stated amounts of solvent and emulsifier, and the concentrate is diluted with emulsifier-containing water to the desired concentration.
Bean plants (Phaseolus vulgaris) which are heavily infested by all stages of the greenhouse red spider mite (Tetranychus urticae) are treated by being dipped into a preparation of active compound of the desired concentration.
After the desired period of time, the activity in % is determined. 100% means that all spider mites have been killed; 0% means that none of the spider mites have been killed.
In this test, for example, the following compounds of the preparation examples show good efficacy: […]

[3] = system: caterpillars of the cotton bollworm (Heliothis armigera); experiment: Heliothis armigera test; format: in vivo; conditions: Helicoverpa armigera, 168 h; 100 ppm active compound; soybean shoots (Glycine max) dipped; after 7 d; read-out: Kill rate in % after 7 d
Experimental: (§1) Heliothis armigera Test • Solvent: 7 parts by weight of dimethylformamide • Emulsifier: 2 parts by weight of alkylaryl polyglycol ether To produce a suitable preparation of active compound, 1 part by weight of active compound is mixed with the stated amounts of solvent and emulsifier, and the concentrate is diluted with emulsifier-containing water to the desired concentration. Soybean shoots (Glycine max) are treated by being dipped into the preparation of active compound of the desired concentration and are populated with caterpillars of the cotton bollworm (Heliothis armigera) while the leaves are still moist. After the desired period of time, the kill in % is determined. 100% means that all caterpillars have been killed; 0% means that none of the caterpillars have been killed. In this test, for example, the following compounds of the preparation examples show good activity: […]

[4] = system: caterpillars of the army worm (Spodoptera frugiperda); experiment: Spodoptera frugiperda test; format: in vivo; conditions: 168 h, 100 ppm active compound, cabbage leaves (Brassica oleracea) dipped, after 7 d, read-out: Kill rate in % after 7 d
Experimental: as §1, with “Spodoptera frugiperda” for “Heliothis armigera”, “Cabbage leaves (Brassica oleracea)” for “Soybean shoots (Glycine max)”, “army worm (Spodoptera frugiperda)” for “cotton bollworm (Heliothis armigera)”

[5] = system: larvae of the mustard beetle (Phaedon cochleariae); experiment: Phaedon larvae test; format: in vivo; conditions: 168 h, 100 ppm active compound, cabbage leaves (Brassica oleracea) dipped, after 7 d, read-out: Kill rate in % after 7 d
Experimental: as §1, with “Phaedon Larvae Test” for “Heliothis armigera Test”, “concentration. Cabbage leaves (Brassica oleracea)” for “concentration. Soybean shoots (Glycine max)”, “with larvae” for “with caterpillars”, “the mustard beetle (Phaedon cochleariae)” for “the cotton bollworm (Heliothis armigera)”, “all beetle larvae” for “all caterpillars”, “the beetle larvae” for “the caterpillars”

[6] = system: caterpillars of the army worm (Spodoptera exigua); experiment: Spodoptera exigua test; format: in vivo; conditions: 100 ppm active compound, cabbage leaves (Brassica oleracea) dipped
Experimental: as §1, with “Spodoptera exigua” for “Heliothis armigera”, “Cabbage leaves (Brassica oleracea)” for “Soybean shoots (Glycine max)”, “army worm (Spodoptera exigua)” for “cotton bollworm (Heliothis armigera)”

[7] = system: caterpillars of the diamondback moth (Plutella xylostella); experiment: Plutella test; format: in vivo; conditions: 100 ppm active compound, cabbage leaves (Brassica oleracea) dipped
Experimental: as §1, with “Plutella” for “Heliothis armigera”, “Cabbage leaves (Brassica oleracea)” for “Soybean shoots (Glycine max)”, “diamondback moth (Plutella xylostella)” for “cotton bollworm (Heliothis armigera)”

[8] = reversed-phase C18 HPLC column; acidic range, pH 2.3, 0.1% aqueous phosphoric acid/acetonitrile, 43° C.; marked a) in tables, read-out: log P (pH 2.3)
[9] = reversed-phase C18 HPLC column; neutral range, pH 7.5, 0.01 molar aqueous phosphate buffer/acetonitrile, 43° C.; marked b) in tables, read-out: log P (pH 7.5)

Row | SMILES | chromatographic logP [1, 8] | chromatographic logP [1, 9] | pest or weed control at 100 ppm [2] | pest or weed control at 100 ppm [3] | pest or weed control at 100 ppm [4] | pest or weed control at 100 ppm [5] | Kill rate in after 7 d [6] | Kill rate in % after 7 d [7]
1 | CC(C)(C)c1nc(-c2ccc(-c3ccc(C4CCC(c5c(F)cccc5F)=N4)c(F)c3)cc2)no1 (stereo not shown) [Example 6, 5-tert-butyl-3-{4′-[5-(2,6-difluorophenyl)-3,4-dihydro-2H-pyrrol-2-yl]-3′-fluoro-1,1′-biphenyl-4-yl}-1,2,4-oxadiazole] | 5.65 | 5.97 | 98% | 100% | 100% | 100% | 100% | 100%
2 | Fc1cc(-c2ccc(-c3noc(C(F)(F)F)n3)cc2)ccc1C1CCC(c2c(F)cccc2F)=N1 (stereo not shown) [Example 7] | 5.43 | 5.72 | 98% | 100% | 100% | 100% | 100% | 100%
